Structures can show the parent of a compound that is named as a salt.
How the values were obtained:
leukemic cells = conditions: Tidwell et al., Blood, 57, 794 (1981); cited from earlier work
[1] = tested on: carageenin-induced edema (rat paw swelling); assay: Carageenin-induced edema (acute inflammation) model, rat paw swelling; format: in vivo; conditions: 25 mg/kg oral, at 4 hours, group of 5 rats
Excerpt: It is well known that free arachidonic acid may be processed into potent inflammatory mediators such as the leukotrienes, prostaglandins, thromboxane A2 and prostacyclin. Inhibition of the release of arachidonic acid could result in a lowered inflammatory response.

[2] = tested on: release of arachidonic acid from membrane phospholipids (rabbit neutrophils); assay: Inhibition of release of arachidonic acid from membrane phospholipids in glycogen-elicited rabbit neutrophils; format: cell-based; conditions: A-23187 0.5 mcg/ml activation, 5 minutes pretreatment at 37° C.
Method: In this procedure, glycogen-elicited rabbit neutrophils are labelled with ^14 C-arachidonic acid by incubation for one hour at 37° C. and followed by treatment with the compound under test at 37° C. for 5 minutes. The cells were then activated by addition of 0.5 mcg/ml of A-23187 (an ionophore) for 5 minutes. Cellular metabolism was stopped; the membrane lipids extracted; and the extracted lipids chromatographed on TLC plates. Assays were conducted for free ^14 C-arachidonic acid and hydroxy^14 C-eicosatetraenoic acid (HETES) using a radiochromatogram scanner.

[3] = tested on: spontaneously hypertensive rats (SHR); assay: Blood pressure and heart rate in spontaneously hypertensive rats, femoral artery cannula; format: in vivo, rat; conditions: for Blood pressure: femoral artery cannula
Excerpt: (§1) The above compounds are also active in lowering the blood pressure of spontaneously hypertensive rats (SHR). […] In the table, column 1 gives the compound used, column 2 the dose level, column 3, the route of administration, column 4, number of rats, column 5, the time of blood pressure measurement, column 6, blood pressure in mm (Hg), and column 7, heart rate.
**B.P. measured by femoral artery cannula.

[4] = tested on: X-5563 plasma cell myeloma; assay: Antitumor activity vs X-5563 plasma cell myeloma in mice; format: in vivo; conditions: daily for 10 days after inoculation
Excerpt: Compounds according to formula II above are also active against transplanted tumors in mice. Table II which follows gives the results of testing (d,1)-2-ethoxy-1-[(2-trimethylaminoethoxy)phosphinyloxy]-eicosane,hydroxy inner salt, (A), against several such tumors. In the table, column 1 gives the name of the tumor, column 2 the dosage levels, column 3 toxic deaths, column 4, the percent tumor growth inhibition and column 5, the dosage schedule or regimen. Ten mice were given each dosage I.P. and a group of 20 mice used as controls.
Table III gives the results obtained by comparing the activity of the racemate (d,1)-2-ethoxy-1-[(2-trimethylaminoethoxy)phosphinyloxy]eicosane,hydroxy inner salt (A), the L-(-)enantiomer (B) and the D-(+)enantiomer (C) versus X-5563, a plasma cell myeloma.

[5] = tested on: spontaneously hypertensive rats (SHR); assay: Blood pressure and heart rate in spontaneously hypertensive rats, tail cuff method; format: in vivo, rat; conditions: administered subcutaneously, various dose levels
Excerpt: as §1
*B.P. measured by tail cuff method.

[6] = 3 mg/kg I.V., 0 hours (baseline)
[7] = 10 mg/kg I.V., 0 hours (baseline)

CCCCCCCCCCCCCCCCCCOCC(COP(=O)([O-])OCC[N+](C)(C)C)OC (stereo not drawn)
inhibits the proliferation of leukemic cells (leukemic cells): inhibits the proliferation of leukemic cells

CCCCCCCCCCCCCCCCCCC(COP(=O)([O-])OCC[N+](C)(C)C)OC (racemic) [Compound 7, (d,l)-2-Methoxy-1-[(2-trimethylaminoethoxy)phosphinyloxy]eicosane, hydroxy inner salt]
inhibition of rat paw swelling [1]: 68%
inhibition of the release of arachidonic acid (AA) from phospholipids [2]: 88%
inhibition of the total production of free AA and HETES [2]: 100%

CCCCCCCCCCCCCCCCCC[C@@H](COP(=O)([O-])OCC[N+](C)(C)C)OCC [Compound 1, D-2-Ethoxy-1-[(2-trimethylaminoethoxy)phosphinyloxy]eicosane, hydroxy inner salt]
Heart Rate [3, 6]: 326 beats/min
Blood pressure [3, 6]: 197 mm Hg
Heart Rate ([3]; 3 mg/kg I.V., 1.0 hours): 376 beats/min
Blood pressure ([3]; 3 mg/kg I.V., 1.0 hours): 194 mm Hg
Heart Rate ([3]; 3 mg/kg I.V., .08 hours): 373 beats/min
Blood pressure ([3]; 3 mg/kg I.V., .08 hours): 197 mm Hg
Heart Rate ([3]; 3 mg/kg I.V., .25 hours): 400 beats/min
Blood pressure ([3]; 3 mg/kg I.V., .25 hours): 200 mm Hg
Heart Rate ([3]; 3 mg/kg I.V., .5 hours): 346 beats/min
Blood pressure ([3]; 3 mg/kg I.V., .5 hours): 188 mm Hg
Heart Rate [3, 7]: 345 beats/min
Blood pressure [3, 7]: 183 mm Hg
Heart Rate ([3]; 10 mg/kg I.V., 1.0 hours): 355 beats/min
Blood pressure ([3]; 10 mg/kg I.V., 1.0 hours): 178 mm Hg
Heart Rate ([3]; 10 mg/kg I.V., .08 hours): 360 beats/min
Blood pressure ([3]; 10 mg/kg I.V., .08 hours): 185 mm Hg
Heart Rate ([3]; 10 mg/kg I.V., .25 hours): 360 beats/min
Blood pressure ([3]; 10 mg/kg I.V., .25 hours): 184 mm Hg
Heart Rate ([3]; 10 mg/kg I.V., .5 hours): 345 beats/min
Blood pressure ([3]; 10 mg/kg I.V., .5 hours): 177 mm Hg
Percent inhibition of Tumor growth ([4]; 17 mg/kg): 76%
Toxic deaths ([4]; 17 mg/kg): 2/10
Percent inhibition of Tumor growth ([4]; 25 mg/kg): 95%
Toxic deaths ([4]; 25 mg/kg): 1/10
Percent inhibition of Tumor growth ([4]; 35 mg/kg): Toxic
Toxic deaths ([4]; 35 mg/kg): 5/10
Percent inhibition of Tumor growth ([4]; 50 mg/kg): Toxic
Toxic deaths ([4]; 50 mg/kg): 10/10

CCCCCCCCCCCCCCCCCC[C@H](COP(=O)([O-])OCC[N+](C)(C)C)OCC [Compound 2, L-2-Ethoxy-1-[(2-trimethylaminoethoxy)phosphinyloxy]eicosane, hydroxy inner salt]
Heart Rate [3, 6]: 340 beats/min
Blood pressure [3, 6]: 177 mm Hg
Heart Rate ([3]; 3 mg/kg I.V., 1.0 hours): 380 beats/min
Blood pressure ([3]; 3 mg/kg I.V., 1.0 hours): 162 mm Hg
Heart Rate ([3]; 3 mg/kg I.V., .08 hours): 385 beats/min
Blood pressure ([3]; 3 mg/kg I.V., .08 hours): 107 mm Hg
Heart Rate ([3]; 3 mg/kg I.V., .25 hours): 367 beats/min
Blood pressure ([3]; 3 mg/kg I.V., .25 hours): 144 mm Hg
Heart Rate ([3]; 3 mg/kg I.V., .5 hours): 370 beats/min
Blood pressure ([3]; 3 mg/kg I.V., .5 hours): 162 mm Hg
hypotensive effects in SHR (in words) [5]: hypotensive effects
Percent inhibition of Tumor growth ([4]; 2.5 mg/kg): 18%
Toxic deaths ([4]; 2.5 mg/kg): 1/10
Percent inhibition of Tumor growth ([4]; 5 mg/kg): 44%
Toxic deaths ([4]; 5 mg/kg): 1/10
Percent inhibition of Tumor growth ([4]; 10 mg/kg): 53%
Toxic deaths ([4]; 10 mg/kg): 0/10
Percent inhibition of Tumor growth ([4]; 20 mg/kg): 67%
Toxic deaths ([4]; 20 mg/kg): 0/10

Reference: US4659859A, “2-alkoxy-1-alkoxy phosphoryl dichlorides” (priority 1986, dated 1987)
